Assay results published in article PMC7862291, “Full-length in meso structure and mechanism of rat kynurenine 3-monooxygenase inhibition” (Communications Biology, 2021).

Assays:
hKMO = molecular target: T1, hKMO (Homo sapiens, UniProt O15229); experiment: Human KMO enzyme (cell-free) assay, NADPH consumption by absorbance; type: biochemical
T1 construct: purchased Origene
Summary of the method: (§1)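 Recombinant human KMO or purified full-length rat KMO, pre-incubated 5 min with compound in HEPES buffer pH ~7.9 with MgCl2, EGTA, DTT, Tween20. Substrate mix of 2.4 mM kynurenine and 0.6 mM NADPH (solution concentrations) added; 90 min at 30 °C. Stopped with maleimide, then WST-9/1-methoxy-PMS colour read-out.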

Rat KMO = molecular target: T2, Rat KMO (Rattus norvegicus, UniProt O88867); experiment: Rat KMO enzyme (cell-free) assay, NADPH consumption by absorbance; type: biochemical
T2 construct: The GST-tagged full-length KMO (1-478) baculovirus vector contained a thrombin cleavage site; GST (thrombin cleavage site between GST and KMO) (N, cleaved yes); made in house; host or cells: Spodoptera frugiperda (Sf9), baculovirus
T2 sequence (O88867 whole entry): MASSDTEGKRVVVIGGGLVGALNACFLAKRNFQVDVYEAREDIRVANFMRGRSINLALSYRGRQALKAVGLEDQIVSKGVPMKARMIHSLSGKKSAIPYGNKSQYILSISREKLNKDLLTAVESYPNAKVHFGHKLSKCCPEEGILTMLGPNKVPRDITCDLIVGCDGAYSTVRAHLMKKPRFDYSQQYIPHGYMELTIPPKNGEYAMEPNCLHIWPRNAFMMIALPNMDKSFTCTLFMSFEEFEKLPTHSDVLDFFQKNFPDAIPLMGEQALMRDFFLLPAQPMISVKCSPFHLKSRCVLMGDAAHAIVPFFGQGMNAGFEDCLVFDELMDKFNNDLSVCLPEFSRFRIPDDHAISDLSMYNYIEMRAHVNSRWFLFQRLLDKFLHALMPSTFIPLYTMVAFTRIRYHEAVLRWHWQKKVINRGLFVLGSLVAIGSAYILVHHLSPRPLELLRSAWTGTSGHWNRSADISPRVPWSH
Summary of the method: as §1

[1] = molecular target: T3, HEK293 cells stably expressing human KMO (Homo sapiens, UniProt O15229); experiment: Cell-based human KMO inhibition assay (LC/MS of 3-hydroxykynurenine)
T3 construct: expressed in transfected cells
T3 sequence (O15229 whole entry): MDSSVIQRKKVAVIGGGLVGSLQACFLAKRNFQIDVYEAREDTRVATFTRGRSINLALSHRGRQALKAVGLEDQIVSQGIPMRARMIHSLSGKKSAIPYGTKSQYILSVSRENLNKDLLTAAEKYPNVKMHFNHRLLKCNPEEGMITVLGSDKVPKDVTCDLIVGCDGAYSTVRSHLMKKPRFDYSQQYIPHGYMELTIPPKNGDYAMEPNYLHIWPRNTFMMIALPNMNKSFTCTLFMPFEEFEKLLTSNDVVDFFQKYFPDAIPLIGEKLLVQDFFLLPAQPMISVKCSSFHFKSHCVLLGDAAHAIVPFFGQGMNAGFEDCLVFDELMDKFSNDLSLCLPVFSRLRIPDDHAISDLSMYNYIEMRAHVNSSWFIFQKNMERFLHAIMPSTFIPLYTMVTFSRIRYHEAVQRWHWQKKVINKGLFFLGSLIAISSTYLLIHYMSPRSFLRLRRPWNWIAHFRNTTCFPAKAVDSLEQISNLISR
Summary of the method: (§2)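 HEK293 lines stably expressing human or rat KMO, pre-incubated ~30 min at 37 °C with compound (final 0–30 μM, 0.3% DMSO) in HBSS/20 mM HEPES. Then 2 h at 37 °C with 0.2 mM kynurenine (solution concentration). 3-Hydroxykynurenine in cell extracts quantified by LC-MS/MS, positive ESI.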

[2] = molecular target: T4, HEK293 cells stably expressing rat KMO (Rattus norvegicus, UniProt O88867); experiment: Cell-based rat KMO inhibition assay (LC/MS of 3-hydroxykynurenine)
T4 construct: expressed in transfected cells
T4 sequence (O88867 whole entry): as the sequence (O88867 whole entry) above
Summary of the method: as §2

T1 sequence (O15229 whole entry): as the sequence (O15229 whole entry) above

IC50 (hKMO; cell-free enzyme assay, high kynurenine, read-out: Human KMO IC50): 0.0038 µM
inhibition rate, Hs-KMO cell-free assay (Figure 1A source data) (hKMO; conc 0.0003 μM, duplicates): 2.492%
inhibition at 0.0003 µM (hKMO; conc 0.0003 μM, duplicates, read-out: inhibition rate, Hs-KMO cell-free assay (Figure 1A source data)): 4.34%
inhibition rate, Hs-KMO cell-free assay (Figure 1A source data) (hKMO; conc 0.001 μM, duplicates): 10.698%
inhibition at 0.001 µM (hKMO; conc 0.001 μM, duplicates, read-out: inhibition rate, Hs-KMO cell-free assay (Figure 1A source data)): 11%
inhibition rate, Hs-KMO cell-free assay (Figure 1A source data) (hKMO; conc 0.003 μM, duplicates): 34.671%
inhibition at 0.003 µM (hKMO; conc 0.003 μM, duplicates, read-out: inhibition rate, Hs-KMO cell-free assay (Figure 1A source data)): 36%
inhibition rate, Hs-KMO cell-free assay (Figure 1A source data) (hKMO; conc 0.01 μM, duplicates): 91.745%
inhibition at 0.01 µM (hKMO; conc 0.01 μM, duplicates, read-out: inhibition rate, Hs-KMO cell-free assay (Figure 1A source data)): 91.2%
inhibition rate, Hs-KMO cell-free assay (Figure 1A source data) (hKMO; conc 0.03 μM, duplicates): 101.827%
inhibition at 0.03 µM (hKMO; conc 0.03 μM, duplicates, read-out: inhibition rate, Hs-KMO cell-free assay (Figure 1A source data)): 102%
inhibition rate, Hs-KMO cell-free assay (Figure 1A source data) (hKMO; conc 0.1 μM, duplicates): 97.991%
inhibition at 0.1 µM (hKMO; conc 0.1 μM, duplicates, read-out: inhibition rate, Hs-KMO cell-free assay (Figure 1A source data)): 98.8%
inhibition rate, Hs-KMO cell-free assay (Figure 1A source data) (hKMO; conc 0.3 μM, duplicates): 101.967%
inhibition at 0.3 µM (hKMO; conc 0.3 μM, duplicates, read-out: inhibition rate, Hs-KMO cell-free assay (Figure 1A source data)): 103%
inhibition rate, Hs-KMO cell-free assay (Figure 1A source data) (hKMO; conc 1 μM, duplicates): 95.974%
inhibition at 1 µM (hKMO; conc 1 μM, duplicates, read-out: inhibition rate, Hs-KMO cell-free assay (Figure 1A source data)): 103%
IC50 (Rat KMO; cell-free enzyme assay, high kynurenine): 0.009 µM
inhibition rate, Rat-KMO cell-free assay (Figure 1B source data) (Rat KMO; conc 0.0003 μM, duplicates): 0.623%
inhibition at 0.0003 µM (Rat KMO; conc 0.0003 μM, duplicates, read-out: inhibition rate, Rat-KMO cell-free assay (Figure 1B source data)): 0.676%
inhibition rate, Rat-KMO cell-free assay (Figure 1B source data) (Rat KMO; conc 0.001 μM, duplicates): 5.077%
inhibition at 0.001 µM (Rat KMO; conc 0.001 μM, duplicates, read-out: inhibition rate, Rat-KMO cell-free assay (Figure 1B source data)): 6.43%
inhibition rate, Rat-KMO cell-free assay (Figure 1B source data) (Rat KMO; conc 0.003 μM, duplicates): 23.289%
inhibition at 0.003 µM (Rat KMO; conc 0.003 μM, duplicates, read-out: inhibition rate, Rat-KMO cell-free assay (Figure 1B source data)): 23.8%
inhibition rate, Rat-KMO cell-free assay (Figure 1B source data) (Rat KMO; conc 0.01 μM, duplicates): 55.764%
inhibition at 0.01 µM (Rat KMO; conc 0.01 μM, duplicates, read-out: inhibition rate, Rat-KMO cell-free assay (Figure 1B source data)): 56.6%
inhibition rate, Rat-KMO cell-free assay (Figure 1B source data) (Rat KMO; conc 0.03 μM, duplicates): 81.294%
inhibition at 0.03 µM (Rat KMO; conc 0.03 μM, duplicates, read-out: inhibition rate, Rat-KMO cell-free assay (Figure 1B source data)): 81.3%
inhibition rate, Rat-KMO cell-free assay (Figure 1B source data) (Rat KMO; conc 0.1 μM, duplicates): 84.395%
inhibition at 0.1 µM (Rat KMO; conc 0.1 μM, duplicates, read-out: inhibition rate, Rat-KMO cell-free assay (Figure 1B source data)): 83.1%
inhibition rate, Rat-KMO cell-free assay (Figure 1B source data) (Rat KMO; conc 0.3 μM, duplicates): 91.102%
inhibition at 0.3 µM (Rat KMO; conc 0.3 μM, duplicates, read-out: inhibition rate, Rat-KMO cell-free assay (Figure 1B source data)): 92.2%
inhibition rate, Rat-KMO cell-free assay (Figure 1B source data) (Rat KMO; conc 1 μM, duplicates): 84.342%
inhibition at 1 µM (Rat KMO; conc 1 μM, duplicates, read-out: inhibition rate, Rat-KMO cell-free assay (Figure 1B source data)): 88.8%
inhibition at 0.0003 µM ([1]; HEK293, conc 0.0003 μM, duplicates, read-out: inhibition rate, Hs-KMO cellular assay (Figure 1C source data)): 6.79%
inhibition at 0.001 µM ([1]; HEK293, conc 0.001 μM, duplicates, read-out: inhibition rate, Hs-KMO cellular assay (Figure 1C source data)): 11%
inhibition at 0.003 µM ([1]; HEK293, conc 0.003 μM, duplicates, read-out: inhibition rate, Hs-KMO cellular assay (Figure 1C source data)): 12.3%
inhibition at 0.01 µM ([1]; HEK293, conc 0.01 μM, duplicates, read-out: inhibition rate, Hs-KMO cellular assay (Figure 1C source data)): 32.5%
inhibition at 0.03 µM ([1]; HEK293, conc 0.03 μM, duplicates, read-out: inhibition rate, Hs-KMO cellular assay (Figure 1C source data)): 100%
inhibition at 0.1 µM ([1]; HEK293, conc 0.1 μM, duplicates, read-out: inhibition rate, Hs-KMO cellular assay (Figure 1C source data)): 104%
inhibition at 0.3 µM ([1]; HEK293, conc 0.3 μM, duplicates, read-out: inhibition rate, Hs-KMO cellular assay (Figure 1C source data)): 105%
IC50 ([1]; HEK293 cells expressing human KMO, LC/MS, read-out: Human cell-based assay IC50): 0.012 µM
inhibition rate, Hs-KMO cellular assay (Figure 1C source data) ([1]; conc 0.0003 μM, duplicates): 4.270%
inhibition rate, Hs-KMO cellular assay (Figure 1C source data) ([1]; conc 0.001 μM, duplicates): 10.835%
inhibition rate, Hs-KMO cellular assay (Figure 1C source data) ([1]; conc 0.003 μM, duplicates): 13.039%
inhibition rate, Hs-KMO cellular assay (Figure 1C source data) ([1]; conc 0.01 μM, duplicates): 26.636%
inhibition rate, Hs-KMO cellular assay (Figure 1C source data) ([1]; conc 0.03 μM, duplicates): 98.487%
inhibition rate, Hs-KMO cellular assay (Figure 1C source data) ([1]; conc 0.1 μM, duplicates): 104.397%
inhibition at 0.3 µM ([2]; HEK293, conc 0.3 μM, duplicates, read-out: inhibition rate, Rat-KMO cellular assay (Figure 1D source data)): 62%
inhibition at 1 µM ([2]; HEK293, conc 1 μM, duplicates, read-out: inhibition rate, Rat-KMO cellular assay (Figure 1D source data)): 91.7%
inhibition at 3 µM ([2]; HEK293, conc 3 μM, duplicates, read-out: inhibition rate, Rat-KMO cellular assay (Figure 1D source data)): 97.7%
inhibition at 10 µM ([2]; HEK293, conc 10 μM, duplicates, read-out: inhibition rate, Rat-KMO cellular assay (Figure 1D source data)): 100%
inhibition at 30 µM ([2]; HEK293, conc 30 μM, duplicates, read-out: inhibition rate, Rat-KMO cellular assay (Figure 1D source data)): 100%
IC50 ([2]; HEK293 cells expressing rat KMO, LC/MS): 0.24 µM
inhibition rate, Rat-KMO cellular assay (Figure 1D source data) ([2]; conc 0.3 μM, duplicates): 48.933%
inhibition rate, Rat-KMO cellular assay (Figure 1D source data) ([2]; conc 1 μM, duplicates): 83.933%
inhibition rate, Rat-KMO cellular assay (Figure 1D source data) ([2]; conc 3 μM, duplicates): 95.840%
inhibition rate, Rat-KMO cellular assay (Figure 1D source data) ([2]; conc 10 μM, duplicates): 99.692%
inhibition rate, Rat-KMO cellular assay (Figure 1D source data) ([2]; conc 30 μM, duplicates): 100.882%
Structure (SMILES): Cc1cnn(-c2ccc(OCc3ccccc3)c(C(=O)O)c2)c1-c1ccc(Cl)c(F)c1 [Compound 3]
